# Experimental data published in ChEMBL document CHEMBL1201862, “PubChem BioAssay data set” (2004).
#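 A five-concentration, 48-hour dose response in 96-well plates underlies each endpoint, interpolated linearly between surrounding concentrations. GI50 is the concentration that inhibits growth by half.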 The source made the active and inactive calls. No stated cut-off is given here; in the data, active = GI50 up to about 1.1 µM and inactive = higher.
# Experiments:
# Assay in all cases: DTP human tumour cell line panel, 48 h
# T47D = test system: T47D
# U-251 = test system: U-251
# SN12C = test system: SN12C
# NCI-H522 = test system: NCI-H522
# SK-MEL-2 = test system: SK-MEL-2
# HT-29 = test system: HT-29
# HCT-116 = test system: HCT-116
# MCF7 = test system: MCF7
# SF-539 = test system: SF-539
# SNB-75 = test system: SNB-75
# SW-620 = test system: SW-620
# Hs-578T = test system: Hs-578T
# LOX IMVI = test system: LOX IMVI
# UACC-62 = test system: UACC-62
# KM12 = test system: KM12
# M14 = test system: M14
# CAKI-1 = test system: CAKI-1
# UO-31 = test system: UO-31
# COLO 205 = test system: COLO 205
# 786-0 = test system: 786-0
# RPMI-8226 = test system: RPMI-8226
# MDA-N = test system: MDA-N
# DU-145 = test system: DU-145
# SK-MEL-5 = test system: SK-MEL-5
# TK-10 = test system: TK-10
# SK-MEL-28 = test system: SK-MEL-28
# NCI-H226 = test system: NCI-H226
# A549 = test system: A549
# OVCAR-5 = test system: OVCAR-5
# HOP-62 = test system: HOP-62
# NCI/ADR-RES = test system: NCI/ADR-RES
# ACHN = test system: ACHN
# HL-60 = test system: HL-60
# HCC 2998 = test system: HCC 2998
# NCI-H460 = test system: NCI-H460
# OVCAR-8 = test system: OVCAR-8
# SF-268 = test system: SF-268
# MDA-MB-231 = test system: MDA-MB-231
# A498 = test system: A498
# MOLT-4 = test system: MOLT-4
# PC-3 = test system: PC-3
# SK-OV-3 = test system: SK-OV-3
# OVCAR-3 = test system: OVCAR-3
# NCI-H23 = test system: NCI-H23
# HCT-15 = test system: HCT-15
# RXF 393 = test system: RXF 393
# SF-295 = test system: SF-295
# MDA-MB-435 = test system: MDA-MB-435
# EKVX = test system: EKVX
# BT-549 = test system: BT-549
# K562 = test system: K562
# IGROV-1 = test system: IGROV-1
# UACC-257 = test system: UACC-257
# Malme-3M = test system: Malme-3M
# CCRF-CEM = test system: CCRF-CEM
# OVCAR-4 = test system: OVCAR-4
# SNB-19 = test system: SNB-19
structure (smiles),measurement,setting,value
NC(Cc1ccc(S(=O)(=O)O)cc1)C(=O)NC(CCCCNC(=O)NCCCCC(NC(=O)C(N)Cc1ccc(S(=O)(=O)O)cc1)C(=O)NC(Cc1ccc(S(=O)(=O)O)cc1)C(=O)O)C(=O)NC(Cc1ccc(S(=O)(=O)O)cc1)C(=O)O (stereo unspecified),GI50,T47D,> 100 µM (inactive)
same,GI50,U-251,> 100 µM (inactive)
same,GI50,SN12C,> 100 µM (inactive)
same,GI50,NCI-H522,> 100 µM (inactive)
same,GI50,SK-MEL-2,> 100 µM (inactive)
same,GI50,HT-29,> 100 µM (inactive)
same,GI50,HCT-116,> 100 µM (inactive)
same,GI50,MCF7,69.5 µM (inactive)
same,GI50,SF-539,> 100 µM (inactive)
same,GI50,SNB-75,> 100 µM (inactive)
same,GI50,SW-620,> 100 µM (inactive)
same,GI50,Hs-578T,> 100 µM (inactive)
same,GI50,LOX IMVI,> 100 µM (inactive)
same,GI50,UACC-62,> 100 µM (inactive)
same,GI50,KM12,> 100 µM (inactive)
same,GI50,M14,> 100 µM (inactive)
same,GI50,CAKI-1,> 100 µM (inactive)
same,GI50,UO-31,> 100 µM (inactive)
same,GI50,COLO 205,> 100 µM (inactive)
same,GI50,786-0,> 100 µM (inactive)
same,GI50,RPMI-8226,> 100 µM (inactive)
same,GI50,MDA-N,> 100 µM (inactive)
same,GI50,DU-145,> 100 µM (inactive)
same,GI50,SK-MEL-5,> 100 µM (inactive)
same,GI50,TK-10,> 100 µM (inactive)
same,GI50,SK-MEL-28,> 100 µM (inactive)
same,GI50,NCI-H226,> 100 µM (inactive)
same,GI50,A549,> 100 µM (inactive)
same,GI50,OVCAR-5,> 100 µM (inactive)
same,GI50,HOP-62,> 100 µM (inactive)
same,GI50,NCI/ADR-RES,> 100 µM (inactive)
same,GI50,ACHN,> 100 µM (inactive)
same,GI50,HL-60,> 100 µM (inactive)
same,GI50,HCC 2998,> 100 µM (inactive)
same,GI50,NCI-H460,> 100 µM (inactive)
same,GI50,OVCAR-8,> 100 µM (inactive)
same,GI50,SF-268,> 100 µM (inactive)
same,GI50,MDA-MB-231,> 100 µM (inactive)
same,GI50,A498,> 100 µM (inactive)
same,GI50,MOLT-4,> 100 µM (inactive)
same,GI50,PC-3,> 100 µM (inactive)
same,GI50,SK-OV-3,> 100 µM (inactive)
same,GI50,OVCAR-3,> 100 µM (inactive)
same,GI50,NCI-H23,> 100 µM (inactive)
same,GI50,HCT-15,> 100 µM
same,GI50,RXF 393,> 100 µM (inactive)
same,GI50,SF-295,> 100 µM (inactive)
same,GI50,MDA-MB-435,> 100 µM (inactive)
same,GI50,EKVX,> 100 µM (inactive)
same,GI50,BT-549,> 100 µM (inactive)
same,GI50,K562,> 100 µM (inactive)
same,GI50,IGROV-1,> 100 µM (inactive)
same,GI50,UACC-257,> 100 µM (inactive)
same,GI50,Malme-3M,> 100 µM (inactive)
same,GI50,CCRF-CEM,> 100 µM (inactive)
same,GI50,OVCAR-4,> 100 µM (inactive)
CCOC(=O)/C(C(=O)Nc1cccc(C(F)(F)F)c1)=C(/N)N1CCCC1,GI50,T47D,47.8 µM (inactive)
same,GI50,U-251,76.9 µM (inactive)
same,GI50,SN12C,41.9 µM (inactive)
same,GI50,NCI-H522,> 100 µM (inactive)
same,GI50,SK-MEL-2,> 100 µM (inactive)
same,GI50,HT-29,> 100 µM (inactive)
same,GI50,HCT-116,> 100 µM (inactive)
same,GI50,MCF7,63 µM (inactive)
same,GI50,SF-539,20.1 µM (inactive)
same,GI50,SNB-75,23.4 µM (inactive)
same,GI50,SW-620,> 100 µM (inactive)
same,GI50,Hs-578T,27.2 µM (inactive)
same,GI50,LOX IMVI,> 100 µM (inactive)
same,GI50,UACC-62,> 100 µM (inactive)
same,GI50,KM12,> 100 µM (inactive)
same,GI50,SNB-19,> 100 µM (inactive)
same,GI50,M14,> 100 µM (inactive)
same,GI50,CAKI-1,> 100 µM (inactive)
same,GI50,COLO 205,> 100 µM (inactive)
same,GI50,786-0,52.6 µM (inactive)
same,GI50,RPMI-8226,> 100 µM (inactive)
same,GI50,MDA-N,> 100 µM (inactive)
same,GI50,DU-145,> 100 µM (inactive)
same,GI50,TK-10,> 100 µM (inactive)
same,GI50,SK-MEL-28,> 100 µM (inactive)
same,GI50,NCI-H226,29.2 µM (inactive)
same,GI50,A549,> 100 µM (inactive)
same,GI50,OVCAR-5,> 100 µM (inactive)
same,GI50,HOP-62,44.6 µM (inactive)
same,GI50,NCI/ADR-RES,> 100 µM (inactive)
same,GI50,ACHN,> 100 µM (inactive)
same,GI50,HL-60,> 100 µM (inactive)
same,GI50,HCC 2998,> 100 µM (inactive)
same,GI50,NCI-H460,> 100 µM (inactive)
same,GI50,OVCAR-8,38 µM (inactive)
same,GI50,SF-268,54.3 µM (inactive)
same,GI50,MDA-MB-231,42.4 µM (inactive)
same,GI50,A498,41.6 µM (inactive)
same,GI50,MOLT-4,> 100 µM (inactive)
same,GI50,PC-3,> 100 µM (inactive)
same,GI50,SK-OV-3,52.4 µM (inactive)
same,GI50,OVCAR-3,> 100 µM (inactive)
same,GI50,NCI-H23,> 100 µM (inactive)
same,GI50,HCT-15,> 100 µM
same,GI50,RXF 393,20.9 µM (inactive)
same,GI50,SF-295,42.2 µM (inactive)
same,GI50,MDA-MB-435,> 100 µM (inactive)
same,GI50,EKVX,> 100 µM (inactive)
same,GI50,BT-549,> 100 µM (inactive)
same,GI50,K562,> 100 µM (inactive)
same,GI50,IGROV-1,> 100 µM (inactive)
same,GI50,UACC-257,> 100 µM (inactive)
same,GI50,Malme-3M,> 100 µM (inactive)
same,GI50,CCRF-CEM,> 100 µM (inactive)
same,GI50,OVCAR-4,> 100 µM (inactive)
